Test results reported in patent US9845482B2, “Compositions and methods for enhancing bioenergetic status in female germ cells” (The General Hospital Corporation, priority 2011, dated 2017).

Experiments:
[1] = tested on: oocytes of aged female mice (C57BL/6); test: Dietary supplementation of aged female mice: mitochondrial distribution in oocytes; assay type: in vivo; settings: for percentage of oocytes exhibiting abnormal mitochondrial clustering (change): compared to Hist 12 M; for abnormal mitochondrial distribution, present in % of oocytes: diet for 3 months, apigenin 0.5 g/kg, luteolin 0.5 g/kg, SRT-1720 2 g/kg
Experimental: Whether mitochondrial aggregation, which has been linked to the decline in oocyte quality with advancing age (Tarín et al. Biol Reprod 2001 65:141-150), was affected by caloric intake was assessed. Oocytes were denuded of cumulus cells, incubated in MitoTracker Red CMRox (Life Technologies), and processed for microscopic analysis. Levels of ATP in individual MII oocytes were determined using a commercially available bioluminescent assay kit under the manufacturer's specifications (Sigma Aldrich Corporation, St. Louis, Mo., USA).
(§1) Female mice (8 months old, strain C57BL/6) were maintained on a 12:12 light dark cycle and provided ad-libitum access to water and food. Conditions within rooms were maintained at 21°±1° C. with 50%±20% relative humidity. Mice were placed on the experimental diets at 8.5 months of age and were maintained for 3 months on the diets. All diets were custom made, ordered from Research Diets: OpenStandard Diet (20 kcal % Protein, 15 kcal % Fat and 65 kcal % Carbohydrate) and the experimental groups consisted of regular OpenStandard Diet, OpenStandard Diet+Apigenin at 0.5 g/kg of body weight, OpenStandard Diet+Luteolin at 0.5 g/kg, and OpenStandard Diet+SRT-1720 at 2 g/kg. Food intake was measured weekly and average weight gain was assessed every two weeks. Each experimental group consisted of 12 randomly allocated mice. When mice were euthanized an additional group of 3-month old C57BL/6 females (3 M) were used as positive controls. In all groups, oocyte numbers were assessed following hormonal stimulation for superovulation.
Methods for determining spindle abnormalities and chromosomal misalignment are described above in Example 8. Abnormal mitochondrial distribution was determined to be present in 16.13% of oocytes from 3 M mice, 46% of oocytes from Hist 12 M mice, 7.7% of oocytes following supplementation with apigenenin, 12% of oocytes following supplementation with luteolin and 6.9% of oocytes following supplementation with SRT-1720. Spindle abnormalities were determined to be present in 18.3% of oocytes in 3 M mice, 60% of oocytes in Hist 12 M mice, 32% of oocytes following supplementation with apigenenin, 32% of oocytes following supplementation with luteolin and 32.8% of oocytes following supplementation with SRT-1720. Chromosomal misalignment was determined to be present 18.3% of oocytes in 3 M mice, 62% of oocytes in Hist 12 M mice, 44% of oocytes from mice supplemented with apigenenin, 40% of oocytes following supplementation with luteolin and 40.9% of oocytes following supplementation with SRT-1720.

[2] = tested on: Mouse OSCs; test: NAD+ and NADH levels in mouse OSCs treated with mitochondrial enhancers; assay type: cell-based; settings: 24 hours
Experimental: FIG. 35 depicts levels of NAD+ (A) and NADH (B) in OSCs treated with mitochondrial enhancers. Mouse OSCs maintained in culture (Zou et al., Nat Cell Biol 2009 11:631-636) were exposed to the indicated test compounds for 24 hours and then assessed for levels of NAD+ and NADH. Female infertility due to chemotherapy, aging and premature ovarian failure (POF) is due in part to a decline in mitochondrial function in oocytes and OSCs. Accordingly, OSCs from mice were used to screen for small compounds that enhance mitochondrial function (“bioenergetic status”) in female germline cells. Assays for enhancing mitochondrial function included mtDNA content, ATP, NAD+/NADH, mitochondrial mass, mitochondrial membrane potential, and gene expression of known mitochondrial mass regulators and electron transport chain components. All the compounds were dissolved in DMSO. For screening purposes the cells were treated with the vehicle (0.001% DMSO) or with 25 or 50 μM of each compound (except for berberine, which the concentrations used for the screen were 5 μM and 25 μM) for 24 hours. For validation of the top 6 hits, cells were treated with vehicle (0.001% DMSO) or either 5 or 25 μM of each compound for 24 hours. For the gene expression profile, the cells were treated with the concentration that was considered to work better in the previous validation assays.

[3] = tested on: aged female mice (C57BL/6); test: Dietary supplementation of aged female mice: oocyte yield, maturation and quality after superovulation; assay type: in vivo; settings: for percentage of mature, metaphase II oocytes retrieved following superovulation / quality of oocytes in aged mice: compared to age appropriate controls (Hist 12 M); for oocyte yield: diet for 3 months from 8.5 months of age, apigenin 0.5 g/kg, luteolin 0.5 g/kg, SRT-1720 2 g/kg, superovulation
Text: Yield, maturational status and post-fertilization developmental competency of oocytes obtained from 12-month-old (aged) female mice returned to an ad-libitum (AL) diet for 1 month following 7.5 months of dietary CR (CR-AL-fed) initiated in a stepwise fashion at 3.5 months of age were first evaluated. This protocol was based on prior work showing that female mice maintained on CR during adulthood continue to breed and deliver offspring into advanced ages after their return to an AL diet (Selesniemi et al. 2008 Aging Cell 7:622-629). Mice were superovulated by injection of pregnant mare serum gonadotropin (PMSG, 10 IU; Sigma Aldrich Corporation, St. Louis, Mo., USA) followed by human chorionic gonadotropin (hCG, 10 IU; Sigma Aldrich Corporation, St. Louis, Mo., USA) 46-48 hours later. Oocytes were collected from oviducts 15-16 hours after hCG injection, denuded of cumulus cells using hyaluronidase (Irvine Scientific, Santa Ana, Calif., USA), washed with human tubal fluid (HTF; Irvine Scientific, Santa Ana, Calif., USA) supplemented with BSA (fraction V, fatty acid-free; Sigma Aldrich Corporation, St. Louis, Mo., USA), and classified as MII (first polar body in perivitelline space), maturation arrested (germinal vesicle breakdown with no polar body extrusion, or germinal vesicle intact), or degenerated.
as §1
Because of the extremely low yield of oocytes from the aged control females, historical data for oocyte yield from 12-month-old C57BL/6 females (referred to as “Hist 12 M”; from Selesniemi et al., Proc Natl Acad Sci USA. 2011 July 26; 108(30): 12319-12324) can be used as an additional reference point for an aged control group.
In FIG. 45A, the percentage of oocytes assessed at metaphase II is shown. In FIG. 45B, the percentage of oocytes arrested at the germinal vesicle (immature) stage is shown. In FIG. 45C, the percentage of atretic (dead) oocytes is shown.

| Structure (SMILES) | percentage of oocytes exhibiting abnormal mitochondrial clustering (change) [1] | abnormal mitochondrial distribution, present in % of oocytes [1] | NAD^+ levels [2] | percentage of mature, metaphase II oocytes retrieved following superovulation [3] | quality of oocytes in aged mice [3] | oocyte yield [3] |
| --- | --- | --- | --- | --- | --- | --- |
| O=c1cc(-c2ccc(O)cc2)oc2cc(O)cc(O)c12 [apigenin, 5,7-Dihydroxy-2-(4-hydroxyphenyl)-4H-1-benzopyran-4-one] | reduced | 7.7% | raise | do not affect | improve the quality of oocytes | increase oocyte yield |
| O=c1cc(-c2ccc(O)c(O)c2)oc2cc(O)cc(O)c12 [luteolin, 2-(3,4-Dihydroxyphenyl)-5,7-dihydroxy-4-chromenone] | reduced | 12% | raise | do not affect | improve the quality of oocytes | increase oocyte yield |
| O=C(Nc1ccccc1-c1cn2c(CN3CCNCC3)csc2n1)c1cnc2ccccc2n1 [SRT-1720, N-[2[3-(piperazin-1-ylmethyl)imidazo[2,1-b][1,3]thiazol-6-yl]phenyl]quinoxaline-2-carboxamide] | reduced | 6.9% |  | do not affect | improve the quality of oocytes | increase oocyte yield |
